Measured values from PMC6271697, “Anticancer Activities of Polyynes from the Root Bark of Oplopanax horridus and Their Acetylated Derivatives” (Molecules, 2014).
Read-outs that look alike come from different tables or passages of the source.

Tests used:
Assay type in all cases: cell-based, human
MDA-MB-231 cells [1] = test: Cell cycle analysis by PI staining and flow cytometry; conditions: 24 h; for G2/M arrest rate at low concentration: OHR-1 7.5 μM, OHR-2 2.5 μM, OHR-3 5 μM, OHR-5 7.5 μM; for G2/M arrest rate at high concentration: OHR-1 15 μM, OHR-2 5 μM, OHR-3 10 μM, OHR-5 15 μM
Protocol: Cells were seeded in 6-well tissue culture plates and treated with DMSO control or different concentration of OHR-1, -2, -3 and -5 for 24 h. Then, the cells were harvested and fixed gently with cold 70% ethanol at −20 °C overnight. Finally, the cells were washed with PBS and re-suspended in 300 μL of propidium iodide (PI) stain solution (20 μg/mL PI and 8 μg/mL DNase-free RNase) for 20 min at room temperature in the dark. The cells were analyzed with a flow cytometry and Mod Fit LT 3.0 software (Variety Software House, Topsham, ME, USA). For each measurement, at least 20,000 cells were counted.

MDA-MB-231 cells [2] = test: MTT cell viability assay, MDA-MB-231 cells; conditions: read-out: IC50 MDA-MB-231
Protocol: (§1) The human breast cancer cell lines MCF-7, MDA-MB-231, human hepatocellular liver cell line HepG2 and human lung carcinoma epithelial cells A549 were purchased from American Type Culture Collection (ATCC, Manassas, VA, USA). Normal human hepatic LO2 cells were obtained from the Institute of Cell Biology, Academic Sinica (Shanghai, China). The cells were grown in an atmosphere of 5% CO2 at 37 °C in RPMI 1640 medium supplemented with 10% fetal bovine serum, 100 U/mL penicillin and […] streptomycin.
(§2) The viability of cells was measured by a colorimetric MTT assay. Briefly, 1 × 10^4 cells/well in 96-well microplates were exposed to different concentration of polyynes and their acetylated derivatives respectively for 24 h incubation, following addition of 20 μL MTT solution (4 mg/mL) to each well for another 4 h incubation at 37 °C. Finally, the medium was removed and replaced with 100 μL dimethyl sulfoxide which was added to dissolve the dye crystal presented in cells. The absorbance was recorded at 570 nm using a microplate reader (1420 Multilabel counter victor^3, Perkin-Elmer, Waltham, MA, USA). The results were expressed as ratio of absorbance between treatments and control cells (solvent vehicle set at 100%). Four replicate wells were tested per assay which was repeated three times.

A549 cells = test: MTT cell viability assay, A549 cells; conditions: for IC50: read-out: IC50 A549
Protocol: as §1, §2

MDA-MB-231 cells [3] = test: Hoechst 33342 staining for apoptosis; conditions: OHR-1 15 μM, OHR-2 5 μM, OHR-3 10 μM, OHR-5 15 μM; 12 h
Protocol: MDA-MB-231 cells were seeded in the flat-bottomed 6-well plates and treated with OHR-1, -2, -3 and -5. Cells treated with solvent vehicle served as controls. In 12 h after treatment, cells were fixed in 4% polyoxymethylene solution for 30 min and then washed with PBS. The fixed cells were incubated with Hoechst 33342 for 15 min at room temperature in the dark and then washed with PBS twice, which were finally observed under a fluorescence microscope (Convert Fluorescence Microsope Axiovert 200, HAL 100, HBO 100, Carl Zeiss MicroImaging Co., Ltd., Oberkochen, Germany) at a magnification of ×400.

HepG2 cells = test: MTT cell viability assay, HepG2 cells; conditions: read-out: IC50 HepG2
Protocol: as §1, §2

MCF-7 cells = test: MTT cell viability assay, MCF-7 cells; conditions: read-out: IC50 MCF-7
Protocol: as §1, §2

MDA-MB-231 cells [4] = test: JC-1 mitochondrial membrane potential; conditions: high concentration (OHR-1 15 μM, OHR-2 5 μM, OHR-3 10 μM, OHR-5 15 μM), 24 h
Protocol: The MDA-MB-231 cells were treated with OHR-1, -2, -3 and -5 for 24 h in a humidified atmosphere (37 °C with 5% CO2). The cells were collected and responded in 0.5 mL culture medium with JC-1 dye (1 μg/mL) for 20 min at 37 °C in dark. Fluorescence was monitored by both flow cytometry (BD Biosciences, San Jose, CA, USA) and fluorescence microscope. The Δψm were indicated by the rato of […] fluorescence intensity. The data were expressed as ratio of Δψm between treatments and control cells (solvent vehicle set at 100%).

LO2 cells = test: MTT cell viability assay, normal hepatic LO2 cells; conditions: read-out: IC50 LO2
Protocol: as §1, §2

[5] = normal human hepatic cells, MTT, 24 h incubation
[6] = Homo sapiens, MDA-MB-231, MTT, 24 h incubation
[7] = Homo sapiens, A549, MTT, 24 h incubation
[8] = Homo sapiens, HepG2, MTT, 24 h incubation
[9] = Homo sapiens, MCF7, MTT, 24 h incubation
[10] = L02, normal human hepatic cells, MTT, 24 h incubation

Compound: (3S,8S,Z)-Heptadeca-1,9-dien-4,6-diyne-3,8-diyl diacetate [OHR-2]
- G2/M arrest rate at low concentration (MDA-MB-231 cells [1]): 22.6% ± 2.6%
- G2/M arrest rate at high concentration (MDA-MB-231 cells [1]): 30.4% ± 3.1%
- IC50 (MDA-MB-231 cells [2]; MTT, 24 h incubation): 4.8 ± 0.5 µM
- IC50 (A549 cells; MTT, 24 h incubation): 24.7 ± 5.6 µM
- induction of apoptosis (Hoechst staining) (MDA-MB-231 cells [3]): induce obvious apoptosis
- IC50 (HepG2 cells; MTT, 24 h incubation): 6.6 ± 1.5 µM
- IC50 (MCF-7 cells; MTT, 24 h incubation): 36.9 ± 4.8 µM
- effect on mitochondrial membrane potential Δψm (JC-1) (MDA-MB-231 cells [4]): decreasing the Δψm
- IC50 (LO2 cells; [5]): 32.1 ± 9 µM

Compound: (11S,16S,Z)-16-Hydroxyoctadeca-9,17-dien-12,14-diyne-1,11-diyl diacetate [OHR-10]
- IC50 (MDA-MB-231 cells [2]; MTT, 24 h incubation): 56.7 ± 6.9 µM
- IC50 (A549 cells; MTT, 24 h incubation): 101 ± 7.3 µM
- IC50 (HepG2 cells; MTT, 24 h incubation): 78.4 ± 6.5 µM
- IC50 (MCF-7 cells; MTT, 24 h incubation): 94.3 ± 6.1 µM
- IC50 (LO2 cells; [5]): 100 to 300 µM

Compound: (11S,16S,Z)-Octadeca-9,17-dien-12,14-diyne-1,11,16-triyl triacetate [OHR-8]
- IC50 (MDA-MB-231 cells [2]; MTT, 24 h incubation): 19.6 ± 6.9 µM
- IC50 (A549 cells; MTT, 24 h incubation): > 300 µM
- IC50 (HepG2 cells; MTT, 24 h incubation): 100 to 300 µM
- IC50 (MCF-7 cells; MTT, 24 h incubation): > 300 µM
- IC50 (LO2 cells; [5]): > 300 µM

Compound: (3S,8S,Z)-3-Hydroxyheptadeca-1,9-dien-4,6-diyn-8-yl acetate [OHR-5]
- G2/M arrest rate at low concentration (MDA-MB-231 cells [1]): 33.2% ± 4.6%
- G2/M arrest rate at high concentration (MDA-MB-231 cells [1]): 38.0% ± 1.7%
- IC50 (MDA-MB-231 cells [2]; MTT, 24 h incubation): 13.9 ± 5.8 µM
- IC50 (A549 cells; MTT, 24 h incubation): 30.1 ± 4.4 µM
- induction of apoptosis (Hoechst staining) (MDA-MB-231 cells [3]): induce obvious apoptosis
- IC50 (HepG2 cells; MTT, 24 h incubation): 43.7 ± 6.6 µM
- IC50 (MCF-7 cells; MTT, 24 h incubation): 30.6 ± 3.1 µM
- effect on mitochondrial membrane potential Δψm (JC-1) (MDA-MB-231 cells [4]): decreasing the Δψm
- IC50 (LO2 cells; [5]): 31.1 ± 1.8 µM

Compound: (3S,8S,Z)-Heptadeca-9-en-4,6-diyne-3,8-diyl diacetate [OHR-1]
- G2/M arrest rate at low concentration (MDA-MB-231 cells [1]): 24.6% ± 3.6%
- G2/M arrest rate at high concentration (MDA-MB-231 cells [1]): 31.7% ± 3.2%
- IC50 (MDA-MB-231 cells [2]; MTT, 24 h incubation): 13.9 ± 3.4 µM
- IC50 (A549 cells; MTT, 24 h incubation): > 300 µM
- induction of apoptosis (Hoechst staining) (MDA-MB-231 cells [3]): induce obvious apoptosis
- IC50 (HepG2 cells; MTT, 24 h incubation): 115 ± 17.1 µM
- IC50 (MCF-7 cells; MTT, 24 h incubation): > 300 µM
- effect on mitochondrial membrane potential Δψm (JC-1) (MDA-MB-231 cells [4]): decreasing the Δψm
- IC50 (LO2 cells; [5]): > 300 µM

Compound: (11S,16S,Z)-Octadeca-9-en-12,14-diyne-1,11,16-triyl triacetate [OHR-7]
- IC50 (MDA-MB-231 cells [2]; MTT, 24 h incubation): > 300 µM
- IC50 (A549 cells; MTT, 24 h incubation): > 300 µM
- IC50 (HepG2 cells; MTT, 24 h incubation): > 300 µM
- IC50 (MCF-7 cells; MTT, 24 h incubation): > 300 µM
- IC50 (LO2 cells; [5]): > 300 µM

Compound: C=C[C@H](O)C#CC#C[C@@H](O)/C=C\CCCCCCCCOC(C)=O [OH-3, (11S,16S,Z)-11,16-Dihydroxyoctadeca-9,17-dien-12,14-diynyl acetate]
- IC50 (MDA-MB-231 cells [2]; [6]): 16.5 ± 2.2 µM
- IC50 (A549 cells; [7]): 98 ± 6.3 µM
- IC50 (HepG2 cells; [8]): 47.2 ± 5.9 µM
- IC50 (MCF-7 cells; [9]): 93.6 ± 6.1 µM
- IC50 (LO2 cells; [10]): 90.3 ± 6.4 µM

Compound: (11S,16S,Z)-11-Hydroxyoctadeca-9-en-12,14-diyne-1,16-diyl diacetate [OHR-11]
- IC50 (MDA-MB-231 cells [2]; MTT, 24 h incubation): 51.5 ± 8.4 µM
- IC50 (A549 cells; MTT, 24 h incubation): 98.2 ± 17.5 µM
- IC50 (HepG2 cells; MTT, 24 h incubation): 77 ± 9.5 µM
- IC50 (MCF-7 cells; MTT, 24 h incubation): 78.1 ± 3.4 µM
- IC50 (LO2 cells; [5]): 93.1 ± 14 µM

Compound: CCCCCCC/C=C\[C@H](O)C#CC#C[C@@H](O)CC [OH-2, (3S,8S,Z)-Heptadeca-9-en-4,6-diyne-3,8-diol]
- IC50 (MDA-MB-231 cells [2]; [6]): 14.7 ± 2.7 µM
- IC50 (A549 cells; [7]): 44.1 ± 9.4 µM
- IC50 (HepG2 cells; [8]): 38.4 ± 7.5 µM
- IC50 (MCF-7 cells; [9]): 27.5 ± 2.2 µM
- IC50 (LO2 cells; [10]): 30.2 ± 4.8 µM

Compound: C=C[C@H](O)C#CC#C[C@@H](O)/C=C\CCCCCCC [OH-1, (3S,8S,Z)-Heptadeca-1,9-dien-4,6-diyne-3,8-diol]
- IC50 (MDA-MB-231 cells [2]; Homo sapiens, MDA-MB-231, 24 h): 4.7 ± 1.4 µM
- IC50 (A549 cells; Homo sapiens, A549, 24 h): 23.5 ± 4.1 µM
- inhibition at 60 µM (A549 cells; Homo sapiens, A549, read-out: A549 cell growth inhibited): 95.6%
- IC50 (HepG2 cells; Homo sapiens, HepG2, 24 h): 7.7 ± 1.3 µM
- IC50 (MCF-7 cells; Homo sapiens, MCF7, 24 h): 15.3 ± 0.3 µM
- IC50 (LO2 cells; Homo sapiens, L02, 24 h): 8.7 ± 0.5 µM
